Assay results as given in ChEMBL document CHEMBL1145246, “Lactams as prostanoid receptor ligands. Part 4: 2-Piperidones as selective EP4 receptor agonists” (Bioorg Med Chem Lett, 2005).

What was measured:
[1] = biological target: Prostaglandin E2 receptor EP4 subtype (Homo sapiens, UniProt P35408); experiment: Effective concentration required for prostanoid EP4 receptor activity was determined; assay type: functional
[2] = Binding affinity for prostanoid EP3 receptor
[3] = Binding affinity for prostanoid EP4 receptor
[4] = Binding affinity for prostanoid EP2 receptor
[5] = Binding affinity for Prostanoid EP2 receptor

Prostaglandin E2 receptor EP4 subtype, sequence (P35408 whole entry): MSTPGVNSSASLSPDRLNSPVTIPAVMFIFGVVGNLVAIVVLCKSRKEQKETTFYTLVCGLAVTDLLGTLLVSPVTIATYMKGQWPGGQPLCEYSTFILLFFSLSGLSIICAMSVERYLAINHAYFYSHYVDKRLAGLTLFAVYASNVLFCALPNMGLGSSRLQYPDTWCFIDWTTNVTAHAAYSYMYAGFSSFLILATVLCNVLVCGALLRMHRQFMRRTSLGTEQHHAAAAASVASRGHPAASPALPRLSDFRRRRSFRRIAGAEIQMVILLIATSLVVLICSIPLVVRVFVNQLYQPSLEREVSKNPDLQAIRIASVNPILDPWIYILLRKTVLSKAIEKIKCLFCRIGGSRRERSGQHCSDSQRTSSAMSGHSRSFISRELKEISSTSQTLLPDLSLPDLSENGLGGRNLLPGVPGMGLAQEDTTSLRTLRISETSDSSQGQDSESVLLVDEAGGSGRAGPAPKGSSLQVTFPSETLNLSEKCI

Row | Compound | EC50 [1] [nM] | Ki [2] [nM] | Ki [3] [nM] | Ki [4] [nM] | Ki [5] [nM]
1 | O=C(O)CCCSCCN1C(=O)CCC[C@@H]1CC[C@@H](O)c1ccc(C(F)(F)F)o1 | 630 | > 10000 | 105 | > 10000 | –
2 | Cc1cc(O)ccc1-c1cccc(C(=O)CC[C@H]2CCCC(=O)N2CCCCCCC(=O)O)c1 | 21000 | – | – | – | –
3 | Cc1cc(Cl)ccc1-c1cccc([C@H](O)CC[C@H]2CCCC(=O)N2CCSCCCC(=O)O)c1 | 6.1 | > 10000 | 4.8 | 1600 | –
4 | COCc1cccc(C[C@H](O)/C=C/[C@H]2CCCC(=O)N2CCSCCCC(=O)O)c1 | 44 | > 10000 | 22 | > 10000 | –
5 | O=C(O)CCCSCCN1C(=O)CCC[C@@H]1/C=C/C(O)C1(c2ccccc2)CC1 (some centres not stated) | 260 | > 10000 | 17 | > 10000 | –
6 | O=C(O)CCCSCCN1C(=O)CCC[C@@H]1/C=C/[C@@H](O)CCC1CC1 | 190 | > 10000 | 21 | – | > 10000
7 | Cc1cc(O)ccc1-c1cccc([C@@H](O)CC[C@H]2CCCC(=O)N2CCCCCCC(=O)O)c1 | 110 | > 10000 | 25 | > 10000 | –
8 | CC(C)c1cc(C[C@H](O)/C=C/[C@H]2CCCC(=O)N2CCCCCCC(=O)O)ccc1O | 1730 | – | 130 | > 10000 | –
9 | Cc1cc(C[C@H](O)/C=C/[C@H]2CCCC(=O)N2CCCCCCC(=O)O)ccc1O | 280 | > 10000 | 7.4 | > 10000 | –
10 | O=C(O)CCCSCCN1C(=O)CCC[C@@H]1/C=C/[C@@H](O)CCC1CCC1 | 34 | > 10000 | 7.3 | 3800 | –
11 | CCCCC(C)(C)C(O)/C=C/[C@H]1CCCC(=O)N1CCSCCCC(=O)O (some centres not stated) | 290 | – | 86 | > 10000 | –
12 | COCc1cccc(C[C@H](O)/C=C/[C@H]2CCCC(=O)N2CCCCCCC(=O)O)c1 | 44 | – | 8.7 | > 10000 | –
